Measurements taken from PubChem BioAssay AID2060610 (Molecular Pharmacology Branch, DTP, NCI, 2025).
Several values for one entry are separate records, joined by “and”; a condition that tells them apart may be missing. Equal entries are not always repeated. Blank lines part the entries; values can stand above or below the compound they belong to.

Test system: 616215-338-R-J1-PDC complex spheroids, viability % test/control
Assay: Anticancer human tumor 616215-338-R-J1-PDC patient-derived colon adenocarcinoma cell line growth inhibition [CLK]
Conditions: for viability, T/C: stronger effect = lower value
Excerpt: A high-throughput screen of multi-cell type tumor spheroids was designed to identify active combinations of […] and targeted small molecules. Complex spheroids include a stromal component modeled by human endothelial cells (HUVEC) and fibroblasts modeled by human mesenchymal stem cells (MSCs). The concentration ranges selected for each drug and investigational agent were based upon clinically achievable concentrations if the clinical Cmax of the agent was known.
Compounds. The drugs and investigational agents: cirtuvivint (SM08502; NSC835563), CC-671 (NSC850746), vemurafenib (NSC761431), tapotoclax (NSC804041), sotorasib (NSC818433), adagrasib (NSC831453), MRTX-1133 (NSC836407), BAY2416964 (NSC825713), copanlisib (NSC816437), inavolisib (NSC800729), abemaciclib (NSC768073), osimertinib (NSC779217), entinostat (NSC756642), eltanexor (KPT-8602, NSC794443), venetoclax (NSC766270), ceralasertib (NSC777638), bortezomib (NSC756655), olaparib (NSC753686), talazoparib (NSC767125), alisertib (NSC759677), peposertib (NSC802822), gemcitabine (NSC613327), 5-fluorouracil (NSC19893), SN-38 (NSC673596), oxaliplatin (NSC266046), paclitaxel (NSC125973), and doxorubicin (NSC123127), were obtained from the National Cancer Institute (NCI) Developmental Therapeutics Program Chemical Repository. The FDA-approved anticancer drug set is available from the Developmental Therapeutics Program at https://dtp.cancer.gov/organization/dscb/obtaining/available plates.htm. […] The stock solutions were prepared in dimethyl sulfoxide (DMSO, Sigma-Aldrich, St. Louis, MO, cat. D2650), except for the platinum complexes which were prepared in saline (Quality Biological, Gaithersburg, MD, cat. 114-055-101), at 800-fold the tested concentration and stored at -70 degrees C prior to their use. All drugs and investigational agents were tested over a range starting from a high concentration at or near the clinical Cmax and decreasing in half-log increments. If the clinical Cmax for an agent had not been determined, the highest concentration tested was 10 microM.
Cell Culture. All cells were maintained in an incubator at 37 degrees C and 5% CO2 with 95% humidity. The PDC lines were cultured according to standard operating procedures established by the NCI PDMR. Briefly, all PDCs were thawed and cultured in Matrigel-coated flasks prepared with a working solution of 1X Ham's F-12 nutrient mix, without supplementation (Invitrogen, Waltham, MA, cat. 11765054), 100 U/mL penicillin-streptomycin (Invitrogen, cat. 15140122), and 2.5% Matrigel (Corning Inc., Corning, NY, cat. 354248) for the first three passages. The 947758-054-R-J2-PDC line was cultured in 6B/Colon 1A media, which includes advanced DMEM/F-12 (Thermo Fisher Scientific, cat. 12634028), 10 mM HEPES (Thermo Fisher Scientific, cat. 15630080), 1X GlutaMAX supplement (Thermo Fisher Scientific, cat. 35050061), 0.1 mg/mL primocin (InvivoGen, cat. ant-pm-2), 10% defined fetal bovine serum, heat inactivated (HyClone Laboratories Inc., cat. SH30070.03HI), 1.25 mM N-Acetyl-L-cysteine (Sigma-Aldrich, cat. A9165), 10 mM nicotinamide (Sigma-Aldrich, cat. N0636), 1X B-27 supplement (Thermo Fisher Scientific, cat. 17504044), 1X N-2 supplement (Thermo Fisher Scientific, cat. 17502048), and 10 microM Y-27632 dihydrochloride (Tocris Bioscience, cat. 1254). The 876862-298-R-J1-PDC was cultured in 6E media, which includes all 6B/Colon 1A media components plus 50% L-WRN conditioned media (ATCC, cat. CRL-3276), 50 ng/mL recombinant human EGF recombinant protein (hEGF; Thermo Fisher Scientific, cat. PHG0311), 10 ng/mL recombinant human fibroblast growth factor 10 (hGFG-10; PeproTech, cat. 100-26), 1 ng/mL recombinant human fibroblast growth factor 2 (hFGF-2; PeproTech, cat. 100-18B), and 1 µM prostaglandin E2 (PGE2; Tocris, cat. 2296). The 227483-062-R1-J1-PDC line was cultured in Panc media, containing all 6E components except hFGF-2, with the addition of 500 nM SB-431542 (Selleckchem, cat. S1067) and 10 nM gastrin (Tocris, cat. 3006). […]
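Further: spheroids exposed to agents for 7 days.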
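Wherever viability, T/C is given: 100% = DMSO vehicle wells.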

IC50 (curve of compound): 6030 nM and 5890 nM
SMILES: C=C(F)C(=O)N1CCN(c2nc(OCC3CCCN3C)nc3c2CCN(c2cccc4cccc(Cl)c24)C3)CC1CC#N (centres undefined)
viability, T/C (compound 0.0316 µM): 101% and 104%
viability, T/C (compound 0.1 µM): 99.9% and 107%
viability, T/C (compound 0.316 µM): 96.3% and 110%
viability, T/C (compound 1 µM): 93.6% and 106%
viability, T/C (compound 3.16 µM): 116% and 114%
viability, T/C (compound 10 µM): 9.79% and 0.24%

IC50 (curve of first compound, second compound 0.0316 µM): < 31.6 nM
IC50 (curve of first compound, second compound 0.1 µM): < 31.6 nM
IC50 (curve of first compound, second compound 0.316 µM): < 31.6 nM
IC50 (curve of first compound, second compound 1 µM): < 31.6 nM
IC50 (curve of first compound, second compound 3.16 µM): < 31.6 nM
IC50 (curve of first compound, second compound 10 µM): < 31.6 nM
SMILES: Nc1ccn(C2OC(CO)C(O)C2(F)F)c(=O)n1 (centres undefined) + CNC(=O)c1ccc(Nc2nc(OC3CCCC3)c3c(-c4ccc5nc(C)oc5c4)c[nH]c3n2)c(OC)c1
viability, T/C (second compound 0.0316 µM, first compound 0.0316 µM): 21.9%
viability, T/C (second compound 0.0316 µM, first compound 0.1 µM): 14.5%
viability, T/C (second compound 0.0316 µM, first compound 0.316 µM): 18.9%
viability, T/C (second compound 0.0316 µM, first compound 1 µM): 14.9%
viability, T/C (second compound 0.0316 µM, first compound 3.16 µM): 20.3%
viability, T/C (second compound 0.0316 µM, first compound 10 µM): 18.9%
viability, T/C (second compound 0.1 µM, first compound 0.0316 µM): 18.2%
viability, T/C (second compound 0.1 µM, first compound 0.1 µM): 18.4%
viability, T/C (second compound 0.1 µM, first compound 0.316 µM): 16.8%
viability, T/C (second compound 0.1 µM, first compound 1 µM): 14.6%
viability, T/C (second compound 0.1 µM, first compound 3.16 µM): 21%
viability, T/C (second compound 0.1 µM, first compound 10 µM): 17.4%
viability, T/C (second compound 0.316 µM, first compound 0.0316 µM): 22.1%
viability, T/C (second compound 0.316 µM, first compound 0.1 µM): 17.2%
viability, T/C (second compound 0.316 µM, first compound 0.316 µM): 18.1%
viability, T/C (second compound 0.316 µM, first compound 1 µM): 17.1%
viability, T/C (second compound 0.316 µM, first compound 3.16 µM): 18.7%
viability, T/C (second compound 0.316 µM, first compound 10 µM): 20.2%
viability, T/C (second compound 1 µM, first compound 0.0316 µM): 18.7%
viability, T/C (second compound 1 µM, first compound 0.1 µM): 15.9%
viability, T/C (second compound 1 µM, first compound 0.316 µM): 16.9%
viability, T/C (second compound 1 µM, first compound 1 µM): 17.8%
viability, T/C (second compound 1 µM, first compound 3.16 µM): 16.6%
viability, T/C (second compound 1 µM, first compound 10 µM): 15.6%
viability, T/C (second compound 3.16 µM, first compound 0.0316 µM): 19.1%
viability, T/C (second compound 3.16 µM, first compound 0.1 µM): 15.8%
viability, T/C (second compound 3.16 µM, first compound 0.316 µM): 18.6%
viability, T/C (second compound 3.16 µM, first compound 1 µM): 18.1%
viability, T/C (second compound 3.16 µM, first compound 3.16 µM): 21.9%
viability, T/C (second compound 3.16 µM, first compound 10 µM): 18.3%
viability, T/C (second compound 10 µM, first compound 0.0316 µM): 21.8%
viability, T/C (second compound 10 µM, first compound 0.1 µM): 15%
viability, T/C (second compound 10 µM, first compound 0.316 µM): 18.6%
viability, T/C (second compound 10 µM, first compound 1 µM): 18.2%
viability, T/C (second compound 10 µM, first compound 3.16 µM): 23.1%
viability, T/C (second compound 10 µM, first compound 10 µM): 17.9%
